According to patent publication US8273762B2, “Hexahydro-pyrrolo-isoquinoline compounds” (Janssen Pharmaceutica NV, priority 2005, dated 2012):
Read-outs that look alike come from different tables or passages of the source.

Key:
[1] = target: T1, cloned human H3 receptor, stably expressed in SK-N-MC cells (Homo sapiens, UniProt Q9Y5N1); assay: H3 receptor binding (N-[3H]-α-methylhistamine displacement); conditions: SK-N-MC membranes, 0.8 nM N-[3H]-α-methylhistamine
T1 construct: expressed in transfected cells

[2] = target: T2, Rat SERT (Rattus norvegicus, UniProt P31652); assay: Rat brain SERT binding ([3H]-Citalopram displacement)
T2 construct: A rat brain without cerebellum (Zivic Laboratories, Inc.—Pittsburgh, Pa.) was homogenized; tissue Zivic Laboratories, Inc; host or cells: rat brain without cerebellum, membranes

[3] = target: T3, human SERT (HEK293 membranes) (Homo sapiens, UniProt P31645); assay: Human SERT binding (3H-citalopram displacement)
T3 construct: purchased Perkin-Elmer; host or cells: HEK293 membranes
Protocol: Nonspecific binding was determined in the presence of 10 μM fluoxetine for the SERT. The membranes were washed and the radioactivity was counted as above.

[4] = target: T4, human H3 receptor (SK-N-MC cells) (Homo sapiens, UniProt Q9Y5N1); assay: Cyclic AMP accumulation (β-galactosidase reporter, Schild analysis vs histamine); type: cell-based
T4 construct: expressed in transfected cells; host or cells: SK-N-MC sublines with CRE-beta-galactosidase reporter
Protocol: The reporter gene (β-galactosidase) is under the control of multiple cyclic AMP responsive elements. In 96-well plates, histamine was added directly to the cell media followed 5 min later by an addition of forskolin (5 μM final concentration). When appropriate, antagonists were added 10 min prior to agonist addition. After a 6-h incubation at 37° C., the media was aspirated and the cells washed with 200 μL of phosphate-buffered saline followed by a second aspiration. Cells were lysed with 25 μL 0.1× assay buffer (10 mM Na-phosphate, pH 8, 0.2 mM MgSO4, 0.01 mM MnCl2) and incubated at rt for 10 min. Cells were then incubated for 10 min with 100 μL of 1× assay buffer containing 0.5% Triton and 40 mM β-mercaptoethanol. Color was developed using 25 μL of 1 mg/mL substrate solution (chlorophenolred β-D galactopyranoside; Roche Molecular Biochemicals, Indianapolis, Ind.).

[5] = rat brain membranes, 0.6 nM [3H]-Citalopram, read-out: Rat SERT Ki

T3 sequence (P31645 whole entry): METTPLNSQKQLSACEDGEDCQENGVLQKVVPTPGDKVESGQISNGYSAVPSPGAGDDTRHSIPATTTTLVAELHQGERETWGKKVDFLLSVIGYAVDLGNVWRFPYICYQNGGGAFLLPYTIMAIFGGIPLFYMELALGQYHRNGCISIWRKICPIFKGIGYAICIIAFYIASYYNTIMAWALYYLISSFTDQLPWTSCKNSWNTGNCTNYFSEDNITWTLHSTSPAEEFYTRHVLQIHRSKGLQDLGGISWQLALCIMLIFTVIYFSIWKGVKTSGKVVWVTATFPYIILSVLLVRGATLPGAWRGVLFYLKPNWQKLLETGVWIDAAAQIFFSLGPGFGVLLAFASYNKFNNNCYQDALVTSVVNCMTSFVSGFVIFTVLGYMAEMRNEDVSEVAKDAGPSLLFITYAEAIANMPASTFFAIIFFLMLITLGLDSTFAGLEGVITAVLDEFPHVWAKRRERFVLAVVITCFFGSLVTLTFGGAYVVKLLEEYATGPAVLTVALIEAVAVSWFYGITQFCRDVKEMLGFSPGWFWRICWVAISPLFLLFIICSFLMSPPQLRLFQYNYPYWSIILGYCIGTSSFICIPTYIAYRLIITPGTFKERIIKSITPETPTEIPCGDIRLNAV
T2 sequence (P31652 whole entry): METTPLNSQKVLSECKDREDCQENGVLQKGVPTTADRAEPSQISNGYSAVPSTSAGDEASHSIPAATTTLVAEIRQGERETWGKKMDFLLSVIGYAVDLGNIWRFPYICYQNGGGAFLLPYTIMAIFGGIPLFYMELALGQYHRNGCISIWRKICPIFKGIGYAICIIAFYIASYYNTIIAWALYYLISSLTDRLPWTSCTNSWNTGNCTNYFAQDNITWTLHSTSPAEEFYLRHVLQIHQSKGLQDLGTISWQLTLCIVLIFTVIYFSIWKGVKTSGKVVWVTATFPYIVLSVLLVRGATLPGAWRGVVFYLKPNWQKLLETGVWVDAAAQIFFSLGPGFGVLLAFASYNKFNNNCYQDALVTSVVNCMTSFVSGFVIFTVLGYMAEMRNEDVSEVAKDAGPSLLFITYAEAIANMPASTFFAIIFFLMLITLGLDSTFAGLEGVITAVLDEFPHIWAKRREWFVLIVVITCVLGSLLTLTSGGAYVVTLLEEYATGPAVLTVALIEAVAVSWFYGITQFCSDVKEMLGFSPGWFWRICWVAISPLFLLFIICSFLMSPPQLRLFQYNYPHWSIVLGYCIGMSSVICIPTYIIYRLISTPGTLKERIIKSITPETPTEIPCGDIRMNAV
T1 sequence (Q9Y5N1 whole entry): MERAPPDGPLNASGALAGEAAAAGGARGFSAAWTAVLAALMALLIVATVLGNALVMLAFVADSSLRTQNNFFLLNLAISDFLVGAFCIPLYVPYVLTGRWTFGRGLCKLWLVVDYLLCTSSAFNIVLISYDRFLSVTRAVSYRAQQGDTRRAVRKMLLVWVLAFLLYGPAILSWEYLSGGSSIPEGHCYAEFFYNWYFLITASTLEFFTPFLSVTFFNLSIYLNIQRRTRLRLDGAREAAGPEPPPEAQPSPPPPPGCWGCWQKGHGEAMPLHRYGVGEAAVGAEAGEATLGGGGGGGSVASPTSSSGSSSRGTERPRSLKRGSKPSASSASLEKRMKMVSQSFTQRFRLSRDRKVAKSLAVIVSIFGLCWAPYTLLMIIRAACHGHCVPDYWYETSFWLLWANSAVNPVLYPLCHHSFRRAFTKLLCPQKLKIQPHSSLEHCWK
T4 sequence (Q9Y5N1 whole entry): as above

**Q.** `CSc1ccc([C@H]2CN3CCC[C@H]3c3cc(OCCCN4CCOCC4)ccc32)cc1` [Example 90, (1S,6R)-6-(4-Methylsulfanyl-phenyl)-9-(3-morpholin-4-yl-propoxy)-1,2,3,5,6,10b-hexahydro-pyrrolo[2,1-a]isoquinoline] was tested. Which Ki [1] did it give?
**A.** 10 nM

**Q.** What about the Ki [2, 5] of the same compound?
**A.** 24 nM

**Q.** For `FC(F)(F)c1cccc([C@H]2CN3CCC[C@H]3c3cc(OCCCN4CCCCC4)ccc32)c1` (relative stereo) [Example 67], which Ki [1] is on record?
**A.** 2 nM

**Q.** And the Ki [2, 5]?
**A.** 22 nM

**Q.** What about the Ki [3] of the same compound?
**A.** 9 nM

**Q.** And the Kb ([4]; read-out: H3 pA2 (converted))?
**A.** 0.501 nM

**Q.** Which results are given for `Oc1ccc([C@@H]2CN3CCC[C@H]3c3cccc(OCCCN4CCCCC4)c32)cc1` (relative stereo) [Example 9B]?
**A.** Ki [1]: 1000 nM; Ki [2, 5]: 6000 nM

**Q.** With `COc1ccc([C@H]2CN3CCC[C@H]3c3cc(OCCCN4CCOC[C@@H]4C)ccc32)cc1` [Example 46, Cis-6-(4-Methoxy-phenyl)-9-[3-(3S-methyl-morpholin-4-yl)-propoxy]-1,2,3,5,6,10b-hexahydro-pyrrolo[2,1-a]isoquinoline] as the compound, how does the Ki [1] read?
**A.** 4 nM

**Q.** And the Ki [2, 5]?
**A.** 14 nM

**Q.** What about the Ki [3] of the same compound?
**A.** 9 nM

**Q.** How did the Ki [1] turn out when `CSc1ccc([C@@H]2CN3CCC[C@@H]3c3cc(OCCCN4CCOCC4)ccc32)cc1` [Example 89, (1R,6S)-6-(4-Methylsulfanyl-phenyl)-9-(3-morpholin-4-yl-propoxy)-1,2,3,5,6,10b-hexahydro-pyrrolo[2,1-a]isoquinoline] was run?
**A.** 16 nM

**Q.** And the Ki [2, 5]?
**A.** 3 nM

**Q.** Which results are given for `c1ccc([C@H]2CN3CCC[C@H]3c3cc(OCCCN4CCCCC4)ccc32)cc1` (relative stereo) [Example 1A, Cis-6-Phenyl-9-(3-piperidin-1-yl-propoxy)-1,2,3,5,6,10b-hexahydro-pyrrolo[2,1a]isoquinoline]?
**A.** Ki [1]: 0.9 nM; Ki [2, 5]: 2 nM; Ki [3]: 4 nM; Kb ([4]; read-out: H3 pA2 (converted)): 0.2 nM

**Q.** How did the Ki [1] turn out when `FC(F)(F)Oc1ccc([C@H]2CN3CCC[C@H]3c3cc(OCCCN4CCCCC4)ccc32)cc1` (relative stereo) [Example 17] was run?
**A.** 4 nM

**Q.** And the Ki [2, 5]?
**A.** 11 nM

**Q.** And the Ki [3]?
**A.** 7 nM

**Q.** What about the Kb ([4]; read-out: H3 pA2 (converted)) of the same compound?
**A.** 6.31 nM

**Q.** How did the Ki [1] turn out when `COc1cccc([C@H]2CN3CCC[C@H]3c3cc(OCCCN4CCCCC4)ccc32)c1` (relative stereo) [Example 10A, Cis-6-(3-Methoxy-phenyl)-9-(3-piperidin-1-yl-propoxy)-1,2,3,5,6,10b-hexahydro-pyrrolo[2,1-a]isoquinoline] was run?
**A.** 2 nM

**Q.** And the Ki [2, 5]?
**A.** 5 nM

**Q.** What about the Ki [3] of the same compound?
**A.** 2 nM

**Q.** What about the Kb ([4]; read-out: H3 pA2 (converted)) of the same compound?
**A.** 0.158 nM

**Q.** For `FC(F)(F)c1ccc([C@@H]2CN3CCC[C@H]3c3cc(OCCCN4CCCCC4)ccc32)cc1` (relative stereo) [Example 7A, Cis-9-(3-Piperidin-1-yl-propoxy)-6-(4-trifluoromethyl-phenyl)-1,2,3,5,6,10b-hexahydro-pyrrolo[2,1-a]isoquinoline], which Ki [2, 5] is on record?
**A.** 27 nM

**Q.** How did the Ki [1] turn out when `FC(F)(F)c1ccc([C@@H]2CN3CCC[C@H]3c3cccc(OCCCN4CCCCC4)c32)cc1` (relative stereo) [Example 7C] was run?
**A.** 31 nM

**Q.** What about the Ki [2, 5] of the same compound?
**A.** 630 nM

**Q.** How did the Ki [1] turn out when `N#Cc1ccc([C@@H]2CN3CCC[C@H]3c3cc(OCCCN4CCCCC4)ccc32)cc1` (relative stereo) [Example 41A, Cis-4-[9-(3-Piperidin-1-yl-propoxy)-1,2,3,5,6,10b-hexahydro-pyrrolo[2,1-a]isoquinolin-6-yl]-benzonitrile] was run?
**A.** 1 nM

**Q.** What about the Ki [2, 5] of the same compound?
**A.** 25 nM

**Q.** What about the Ki [3] of the same compound?
**A.** 59 nM

**Q.** What about the Kb ([4]; read-out: H3 pA2 (converted)) of the same compound?
**A.** 0.794 nM

**Q.** Which results are given for `c1ccc([C@@H]2CN3CCC[C@H]3c3cccc(OCCCN4CCCCC4)c32)cc1` (relative stereo) [Example 1C, Trans-6-Phenyl-7-(3-piperidin-1-yl-propoxy)-1,2,3,5,6,10b-hexahydro-pyrrolo[2,1a]isoquinoline]?
**A.** Ki [1]: 68 nM; Ki [2, 5]: 4000 nM

**Q.** With `CN(C)c1ccc([C@H]2CN3CCC[C@H]3c3cc(OCCCN4CCCCC4)ccc32)cc1` (relative stereo) [Example 30] as the compound, how does the Ki [1] read?
**A.** 2 nM

**Q.** And the Ki [2, 5]?
**A.** 3 nM

**Q.** What about the Ki [3] of the same compound?
**A.** 2 nM

**Q.** `Clc1cccc([C@@H]2CN3CCC[C@H]3c3cccc(OCCCN4CCCCC4)c32)c1` (relative stereo) [Example 11C] was tested. Which Ki [1] did it give?
**A.** 136 nM

**Q.** What about the Ki [2, 5] of the same compound?
**A.** 1000 nM

**Q.** With `O=[N+]([O-])c1cccc([C@@H]2CN3CCC[C@H]3c3cccc(OCCCN4CCCCC4)c32)c1` (relative stereo) [Example 4D, Trans-6-(3-Nitro-phenyl)-7-(3-piperidin-1-yl-propoxy)-1,2,3,5,6,10b-hexahydro-pyrrolo[2,1-a]isoquinoline] as the compound, how does the Ki [1] read?
**A.** 1 nM

**Q.** What about the Ki [2, 5] of the same compound?
**A.** 154 nM

**Q.** How did the Ki [2, 5] turn out when `FC(F)(F)c1ccc([C@@H]2CN3CCC[C@@H]3c3cc(OCCCN4CCCCC4)ccc32)cc1` (relative stereo) [Example 7B, Trans-9-(3-Piperidin-1-yl-propoxy)-6-(4-trifluoromethyl-phenyl)-1,2,3,5,6,10b-hexahydro-pyrrolo[2,1-a]isoquinoline] was run?
**A.** 25 nM

**Q.** How did the Ki [2, 5] turn out when `COc1ccc([C@H]2CN3CCC[C@H]3c3cc(OCCCN4CCOCC4)ccc32)cc1` [Example 91, (1S,6R)-6-(4-Methoxy-phenyl)-9-(3-morpholin-4-yl-propoxy)-1,2,3,5,6,10b-hexahydro-pyrrolo[2,1-a]isoquinoline] was run?
**A.** 60 nM

**Q.** What about the Kb ([4]; read-out: H3 pA2 (converted)) of the same compound?
**A.** 3.16 nM

**Q.** Which results are given for `c1ccc([C@@H]2CN3CCC[C@H]3c3cc(OCCCN4CCCCC4)ccc32)cc1` (relative stereo) [Example 1B, Trans-6-Phenyl-9-(3-piperidin-1-yl-propoxy)-1,2,3,5,6,10b-hexahydro-pyrrolo[2,1a]isoquinoline]?
**A.** Ki [1]: 0.2 nM; Ki [2, 5]: 138 nM; Kb ([4]; read-out: H3 pA2 (converted)): 0.251 nM

**Q.** What does the source list for `COc1cccc([C@@H]2CN3CCC[C@H]3c3cc(OCCCN4CCCCC4)ccc32)c1` (relative stereo) [Example 10B, Trans-6-(3-Methoxy-phenyl)-9-(3-piperidin-1-yl-propoxy)-1,2,3,5,6,10b-hexahydro-pyrrolo[2,1-a]isoquinoline]?
**A.** Ki [1]: 2 nM; Ki [2, 5]: 37 nM; Kb ([4]; read-out: H3 pA2 (converted)): 0.251 nM

**Q.** `N#Cc1ccc([C@H]2CN3CCC[C@H]3c3cc(OCCCN4CCCCC4)ccc32)cc1` (relative stereo) [Example 41B, Trans-4-[9-(3-Piperidin-1-yl-propoxy)-1,2,3,5,6,10b-hexahydro-pyrrolo[2,1-a]isoquinolin-6-yl]-benzonitrile] was tested. Which Ki [1] did it give?
**A.** 1 nM

**Q.** What about the Ki [2, 5] of the same compound?
**A.** 6 nM

**Q.** What about the Kb ([4]; read-out: H3 pA2 (converted)) of the same compound?
**A.** 0.794 nM

**Q.** `COc1ccc([C@H]2CN3CCC[C@@H]3c3cc(OCCCN4CCOCC4)ccc32)cc1` [Example 94, (1R,6R)-6-(4-Methoxy-phenyl)-9-(3-morpholin-4-yl-propoxy)-1,2,3,5,6,10b-hexahydro-pyrrolo[2,1-a]isoquinoline] was tested. Which Ki [1] did it give?
**A.** 4 nM

**Q.** And the Ki [2, 5]?
**A.** 53 nM

**Q.** And the Ki [3]?
**A.** 111 nM

**Q.** How did the Ki [1] turn out when `Clc1cccc([C@H]2CN3CCC[C@H]3c3cc(OCCCN4CCCCC4)ccc32)c1` (relative stereo) [Example 11B, Trans-6-(3-Chloro-phenyl)-9-(3-piperidin-1-yl-propoxy)-1,2,3,5,6,10b-hexahydro-pyrrolo[2,1-a]isoquinoline] was run?
**A.** 1 nM

**Q.** What about the Ki [2, 5] of the same compound?
**A.** 91 nM

**Q.** And the Kb ([4]; read-out: H3 pA2 (converted))?
**A.** 0.501 nM

**Q.** For `C[Si](C)(C)C#Cc1cccc([C@H]2CN3CCC[C@H]3c3cc(OCCCN4CCCCC4)ccc32)c1` (relative stereo) [Example 33], which Ki [1] is on record?
**A.** 7 nM

**Q.** And the Ki [2]?
**A.** 33 nM

**Q.** And the Kb [4]?
**A.** 7.94 nM

**Q.** How did the Ki [1] turn out when `COc1ccc([C@@H]2CN3CCC[C@H]3c3cc(OCCCN4CCOCC4)ccc32)cc1` [Example 95, (1S,6S)-6-(4-Methoxy-phenyl)-9-(3-morpholin-4-yl-propoxy)-1,2,3,5,6,10b-hexahydro-pyrrolo[2,1-a]isoquinoline] was run?
**A.** 6 nM

**Q.** What about the Ki [2, 5] of the same compound?
**A.** 11 nM

**Q.** What about the Ki [3] of the same compound?
**A.** 13 nM

**Q.** Which results are given for `O=[N+]([O-])c1ccc([C@@H]2CN3CCC[C@H]3c3cc(OCCCN4CCCCC4)ccc32)cc1` (relative stereo) [Example 2B, Trans-6-(4-Nitro-phenyl)-9-(3-piperidin-1-yl-propoxy)-1,2,3,5,6,10b-hexahydro-pyrrolo[2,1-a]isoquinoline]?
**A.** Ki [1]: 31 nM; Ki [2, 5]: 544 nM; Kb ([4]; read-out: H3 pA2 (converted)): 1.58 nM

**Q.** Which results are given for `C[Si](C)(C)C#Cc1ccc([C@H]2CN3CCC[C@H]3c3cc(OCCCN4CCCCC4)ccc32)cc1` (relative stereo) [Example 36]?
**A.** Ki [1]: 4 nM; Ki [2]: 15 nM; Kb [4]: 10 nM

**Q.** Which results are given for `COc1cccc([C@@H]2CN3CCC[C@H]3c3cccc(OCCCN4CCCCC4)c32)c1` (relative stereo) [Example 10C, Trans-6-(3-Methoxy-phenyl)-7-(3-piperidin-1-yl-propoxy)-1,2,3,5,6,10b-hexahydro-pyrrolo[2,1-a]isoquinoline]?
**A.** Ki [1]: 82 nM; Ki [2, 5]: 2000 nM

**Q.** Which results are given for `Clc1ccc([C@@H]2CN3CCC[C@H]3c3cc(OCCCN4CCCCC4)ccc32)cc1Cl` (relative stereo) [Example 6A, Cis-6-(3,4-Dichloro-phenyl)-9-(3-piperidin-1-yl-propoxy)-1,2,3,5,6,10b-hexahydro-pyrrolo[2,1-a]isoquinoline]?
**A.** Ki [1]: 3 nM; Ki [3]: 4 nM; Kb ([4]; read-out: H3 pA2 (converted)): 6.31 nM

**Q.** `CSc1ccc(C2CN3CCCC3c3cccc(OCCCN4CCCCC4)c32)cc1` (stereo not drawn) [Example 39C, 6-(4-Methylsulfanyl-phenyl)-7-(3-piperidin-1-yl-propoxy)-1,2,3,5,6,10b-hexahydro-pyrrolo[2,1-a]isoquinoline] was tested. Which Ki [1] did it give?
**A.** 36 nM

**Q.** What about the Ki [2, 5] of the same compound?
**A.** 69 nM

**Q.** How did the Ki [1] turn out when `COc1ccc([C@H]2CN3CCC[C@H]3c3cc(OC4CCN(C(C)C)CC4)ccc32)cc1` (relative stereo) [Example 28] was run?
**A.** 0.4 nM

**Q.** And the Ki [2, 5]?
**A.** 4 nM

**Q.** And the Ki [3]?
**A.** 5 nM

**Q.** Which Ki [1] does the source give for `O=[N+]([O-])c1cccc([C@H]2CN3CCC[C@H]3c3cc(OCCCN4CCCCC4)ccc32)c1` (relative stereo) [Example 4A, Cis-6-(3-Nitro-phenyl)-9-(3-piperidin-1-yl-propoxy)-1,2,3,5,6,10b-hexahydro-pyrrolo[2,1-a]isoquinoline] here?
**A.** 1 nM

**Q.** What about the Ki [3] of the same compound?
**A.** 4 nM

**Q.** What about the Kb ([4]; read-out: H3 pA2 (converted)) of the same compound?
**A.** 0.126 nM
